Laboratory results: ChEMBL document CHEMBL3576813, “Cucurbitacin D Is a Disruptor of the HSP90 Chaperone Machinery” (J Nat Prod, 2015)
Calls of active or inactive are those of the source. No cut-off for these calls is given here.

Tests used:
MCF7 [1] = assay: Cytotoxicity against human MCF7 cells assessed as growth inhibition after 72 hrs by MTS/PMS assay; assay type: functional, cell-based; settings: MCF7, 72 h
[2] = biological target: T1, Heat shock protein HSP90 (Homo sapiens) (UniProt P07900+P08238); assay: Inhibition of HSP90 in human MCF7 cells assessed as pAkt degradation after 24 hrs by Western blot analysis; assay type: cell-based
[3] = biological target: T1, Heat shock protein HSP90 (Homo sapiens); assay: Inhibition of HSP90 in human MCF7 cells assessed as Her2 degradation after 24 hrs by Western blot analysis; assay type: cell-based
[4] = biological target: T1, Heat shock protein HSP90 (Homo sapiens); assay: Inhibition of HSP90 in human MCF7 cells assessed as Cdk6 degradation after 24 hrs by Western blot analysis; assay type: cell-based
[5] = biological target: T1, Heat shock protein HSP90 (Homo sapiens); assay: Inhibition of HSP90 in human MCF7 cells assessed as Raf degradation after 24 hrs by Western blot analysis; assay type: cell-based
MCF7 [6] = assay: Change in Cdc37 expression in human MCF7 cells at 0.01 to 10 uM after 24 hrs by Western blot analysis; assay type: functional, cell-based
MCF7 [7] = assay: Change in p23 expression in human MCF7 cells at 0.01 to 10 uM after 24 hrs by Western blot analysis; assay type: functional, cell-based
[8] = biological target: T1, Heat shock protein HSP90 (Homo sapiens); assay: Inhibition of HSP90 in human MCF7 cells assessed as disruption of interaction with Cdc37 at 0.5 times to 5 times IC50 after 24 hrs by co-immunoprecipitation assay; assay type: cell-based
[9] = biological target: T1, Heat shock protein HSP90 (Homo sapiens); assay: Inhibition of HSP90 in human MCF7 cells assessed as disruption of interaction with p23 at 0.5 times to 5 times IC50 after 24 hrs by co-immunoprecipitation assay; assay type: cell-based
[10] = biological target: T1, Heat shock protein HSP90 (Homo sapiens); assay: Inhibition of HSP90 in human MCF7 cells assessed as induction of heat shock response-mediated HSP27 production at 5 times to 10 times IC50 after 24 hrs by Western blot analysis relative to vehicle-treated control; assay type: cell-based
MCF7 [11] = assay: Change in Cdc37 expression in human MCF7 cells at 5 times IC50 after 24 hrs by Western blot analysis; assay type: functional, cell-based
MCF7 [12] = assay: Change in p23 expression in human MCF7 cells at 5 times IC50 after 24 hrs by Western blot analysis; assay type: functional, cell-based
[13] = biological target: T2, Prostaglandin E synthase 3 (Homo sapiens) (UniProt Q15185); assay: Binding affinity to p23 in human MCF7 cells assessed as inhibition of interaction with HSP90 at 5 times IC50 after 24 hrs by co-immunoprecipitation assay; assay type: cell-based
T2 sequence (whole entry): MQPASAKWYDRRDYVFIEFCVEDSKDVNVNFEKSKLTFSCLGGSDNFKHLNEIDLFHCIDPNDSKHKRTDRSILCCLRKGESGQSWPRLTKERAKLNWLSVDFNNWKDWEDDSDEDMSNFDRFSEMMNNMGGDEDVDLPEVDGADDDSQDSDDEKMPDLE

[14] = biological target: T1, Heat shock protein HSP90 (Homo sapiens); assay: Inhibition of HSP90 in human MCF7 cells assessed as pAkt degradation at 0.5 times to 5 times IC50 after 24 hrs by Western blot analysis; assay type: cell-based
[15] = biological target: T1, Heat shock protein HSP90 (Homo sapiens); assay: Inhibition of HSP90 in human MCF7 cells assessed as Her2 degradation at 0.5 times to 5 times IC50 after 24 hrs by Western blot analysis; assay type: cell-based
[16] = biological target: T1, Heat shock protein HSP90 (Homo sapiens); assay: Inhibition of HSP90 in human MCF7 cells assessed as Cdk6 degradation at 0.5 times to 5 times IC50 after 24 hrs by Western blot analysis; assay type: cell-based
[17] = biological target: T1, Heat shock protein HSP90 (Homo sapiens); assay: Inhibition of HSP90 in human MCF7 cells assessed as Raf degradation at 0.5 times to 5 times IC50 after 24 hrs by Western blot analysis; assay type: cell-based
[18] = biological target: T1, Heat shock protein HSP90 (Homo sapiens); assay: Inhibition of HSP90 in human MCF7 cells assessed as induction of heat shock response-mediated HSP90 production at 0.5 times to 5 times IC50 after 24 hrs by Western blot analysis; assay type: cell-based
[19] = biological target: T1, Heat shock protein HSP90 (Homo sapiens); assay: Inhibition of HSP90 in human MCF7 cells assessed as induction of heat shock response-mediated HSP70 production at 0.5 times to 5 times IC50 after 24 hrs by Western blot analysis; assay type: cell-based
[20] = biological target: T1, Heat shock protein HSP90 (Homo sapiens); assay: Inhibition of HSP90 in human MCF7 cells assessed as induction of heat shock response-mediated HSP27 production at 0.5 times to 5 times IC50 after 24 hrs by Western blot analysis; assay type: cell-based

CC(C)(O)/C=C/C(=O)[C@](C)(O)[C@H]1[C@H](O)C[C@@]2(C)[C@@H]3CC=C4[C@@H](CC(=O)[C@H](O)C4(C)C)[C@]3(C)C(=O)C[C@]12C
IC50 (MCF7 [1]; read-out: IC50): 718 nM
inhibition [2]: Dose-dependent effect
inhibition [3]: Dose-dependent effect
inhibition [4]: Dose-dependent effect
inhibition [5]: Dose-dependent effect
Activity (MCF7 [6]): inactive
Activity (MCF7 [7]): inactive
inhibition [8]: inactive
inhibition [9]: inactive
inhibition [10]: Active

CC(=O)O[C@@H]1C[C@H]2C(C)(C)C(=O)C=C[C@]2(C)[C@H]2CC[C@@]3(C)[C@H](c4ccoc4)OC(=O)[C@H]4O[C@]43[C@@]21C [GEDUNIN]
IC50 (MCF7 [1]; read-out: IC50): 10900 nM
Activity (MCF7 [11]): Active
Activity (MCF7 [12]): Active
inhibition [10]: inactive
inhibition [13]: Active

CC(C)(O)CCC(=O)[C@@](C)(O)[C@H]1[C@H](O)C[C@@]2(C)[C@@H]3CC=C4[C@@H](C[C@H](O)C(=O)C4(C)C)[C@]3(C)C(=O)C[C@]12C
IC50 (MCF7 [1]; read-out: IC50): 5130 nM
inhibition [14]: inactive
inhibition [15]: inactive
inhibition [16]: inactive
inhibition [17]: inactive
inhibition [18]: inactive
inhibition [19]: inactive
inhibition [20]: inactive

CC(=O)OC(C)(C)/C=C/C(=O)[C@](C)(O)[C@H]1[C@H](O)C[C@@]2(C)[C@@H]3CC=C4[C@H](C[C@H](O)C(=O)C4(C)C)[C@]3(C)C(=O)C[C@]12C [CUCURBITACIN B]
IC50 (MCF7 [1]; read-out: IC50): 41.3 nM
inhibition [14]: inactive
inhibition [15]: inactive
inhibition [16]: inactive
inhibition [17]: inactive
inhibition [18]: inactive
inhibition [19]: inactive
inhibition [20]: inactive

CC(=O)OC(C)(C)/C=C/C(=O)[C@](C)(O)[C@H]1[C@H](O)C[C@@]2(C)[C@@H]3CC=C4[C@@H](C=C(O)C(=O)C4(C)C)[C@]3(C)C(=O)C[C@]12C [CUCURBITACIN E]
IC50 (MCF7 [1]): 55 nM
inhibition [14]: inactive
inhibition [15]: inactive
inhibition [16]: inactive
inhibition [17]: inactive
inhibition [18]: inactive
inhibition [19]: inactive
inhibition [20]: inactive

CC(C)(O)/C=C/C(=O)[C@](C)(O)[C@H]1[C@H](O)C[C@@]2(C)[C@@H]3CC=C4[C@@H](C=C(O)C(=O)C4(C)C)[C@]3(C)C(=O)C[C@]12C [CUCURBITACIN I]
IC50 (MCF7 [1]; read-out: IC50): 60.7 nM
inhibition [14]: inactive
inhibition [15]: inactive
inhibition [16]: inactive
inhibition [17]: inactive
inhibition [18]: inactive
inhibition [19]: inactive
inhibition [20]: inactive

CC(=O)OC(C)(C)CCC(=O)[C@](C)(O)[C@H]1[C@H](O)C[C@@]2(C)[C@@H]3CC=C4[C@@H](C[C@H](O)C(=O)C4(C)C)[C@]3(C)C(=O)C[C@]12C [23,24-DIHYDROCUCURBITACIN B]
IC50 (MCF7 [1]; read-out: IC50): 46300 nM
inhibition [14]: inactive
inhibition [15]: inactive
inhibition [16]: inactive
inhibition [17]: inactive
inhibition [18]: inactive
inhibition [19]: inactive
inhibition [20]: inactive

COC1=C2C[C@@H](C)C[C@H](OC)[C@H](O)[C@@H](C)/C=C(\C)[C@H](OC(N)=O)[C@@H](OC)/C=C\C=C(/C)C(=O)NC(=CC1=O)C2=O [GELDANAMYCIN]
IC50 (MCF7 [1]; read-out: IC50): 42.7 nM
Activity (MCF7 [11]): Active
Activity (MCF7 [12]): Active

CC1=C(O)C(=O)C=C2C1=CC=C1[C@@]2(C)CC[C@@]2(C)[C@@H]3C[C@](C)(C(=O)O)CC[C@]3(C)CC[C@]12C [CELASTROL]
IC50 (MCF7 [1]; read-out: IC50): 153 nM
Activity (MCF7 [11]): Active
Activity (MCF7 [12]): Active

CC(C)(O)/C=C/C(=O)[C@](C)(O)[C@H]1[C@H](O)C[C@@]2(C)[C@@H]3CC=C4[C@@H](C[C@H](O)C(=O)C4(C)C)[C@]3(C)C(=O)C[C@]12C [CUCURBITACIN D]
IC50 (MCF7 [1]; read-out: IC50): 598 nM
inhibition [2]: Dose-dependent effect
inhibition [3]: Dose-dependent effect
inhibition [4]: Dose-dependent effect
inhibition [5]: Dose-dependent effect
Activity (MCF7 [6]): inactive
Activity (MCF7 [7]): inactive
inhibition [10]: inactive
